Results taken from the supplement of paper PMC10627819.

Tests used:
Test in all cases: fitness (endpoint OD595 vs no drug) (fraction); higher = more growth
S. aureus Newman = system: S. aureus Newman
Outline: (§1)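 Bacterial growth was followed in 384-well plates seeded at OD595 0.01, with 30 µl per well, or 55 µl for S. pneumoniae, in TSB, LB Lennox or CY at 37 °C. OD595 was read every 30 min for 14 h, and each reading had the first reading subtracted as background. Fitness is the background-corrected optical density at entry into stationary phase divided by the robust mean of the no-drug control wells. This ratio is capped at 1.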

S. aureus DSM 20231 = system: S. aureus DSM 20231
Outline: as §1

S. pneumoniae D39V = system: S. pneumoniae D39V
Outline: as §1

B. subtilis 168 = system: B. subtilis 168
Outline: as §1

Cc1cc(NS(=O)(=O)c2ccc(N)cc2)no1 [Sulfamethoxazol] + CN[C@@H]1[C@H](O)[C@H](NC)[C@H]2O[C@@]3(O)C(=O)C[C@@H](C)O[C@H]3O[C@@H]2[C@H]1O [Spectinomycin]
fitness
Details | first compound 1 µg/mL | first compound 2 µg/mL | first compound 4 µg/mL
B. subtilis 168, partner 2 µg/mL | 0.926 | 0.853 | 0.941
B. subtilis 168, partner 4 µg/mL | 0.92 | 0.861 | 0.959
B. subtilis 168, partner 8 µg/mL | 0.96 | 0.891 | 0.891
S. aureus DSM 20231, partner 4 µg/mL | 0.897 | 0.896 | 0.994
S. aureus DSM 20231, partner 8 µg/mL | 0.822 | 0.861 | 0.957
S. aureus DSM 20231, partner 16 µg/mL | 0.763 | 0.812 | 0.849
S. aureus Newman, partner 4 µg/mL | 0.972 | 0.964 | 0.983
S. aureus Newman, partner 8 µg/mL | 0.986 | 0.985 | 0.967
S. aureus Newman, partner 16 µg/mL | 0.877 | 0.927 | 0.925
S. pneumoniae D39V, partner 4 µg/mL | 0.954 | 0.889 | 0.924
S. pneumoniae D39V, partner 8 µg/mL | 0.935 | 0.899 | 0.922

one replicate
Details | fitness
B. subtilis 168, first compound 0.5 µg/mL, partner 2 µg/mL | 0.916
B. subtilis 168, first compound 0.5 µg/mL, partner 4 µg/mL | 0.882
B. subtilis 168, first compound 0.5 µg/mL, partner 8 µg/mL | 0.851
S. aureus DSM 20231, first compound 1 µg/mL, partner 32 µg/mL | 0.826
S. aureus DSM 20231, first compound 1 µg/mL, partner 64 µg/mL | 0.08
S. aureus DSM 20231, first compound 2 µg/mL, partner 32 µg/mL | 0.796
S. aureus DSM 20231, first compound 2 µg/mL, partner 64 µg/mL | 0.0783
S. aureus DSM 20231, first compound 4 µg/mL, partner 32 µg/mL | 0.802
S. aureus DSM 20231, first compound 4 µg/mL, partner 64 µg/mL | 0.0708
S. aureus Newman, first compound 1 µg/mL, partner 32 µg/mL | 0.589
S. aureus Newman, first compound 1 µg/mL, partner 64 µg/mL | 0.0829
S. aureus Newman, first compound 2 µg/mL, partner 32 µg/mL | 0.577
S. aureus Newman, first compound 2 µg/mL, partner 64 µg/mL | 0.0759
S. aureus Newman, first compound 4 µg/mL, partner 32 µg/mL | 0.581
S. aureus Newman, first compound 4 µg/mL, partner 64 µg/mL | 0.0529
S. aureus Newman, first compound 8 µg/mL, partner 4 µg/mL | ≥ 1
S. aureus Newman, first compound 8 µg/mL, partner 8 µg/mL | 0.959
S. aureus Newman, first compound 8 µg/mL, partner 16 µg/mL | 0.905
S. pneumoniae D39V, first compound 1 µg/mL, partner 16 µg/mL | 0.691
S. pneumoniae D39V, first compound 2 µg/mL, partner 16 µg/mL | 0.634
S. pneumoniae D39V, first compound 4 µg/mL, partner 16 µg/mL | 0.702

Cc1cc(NS(=O)(=O)c2ccc(N)cc2)no1 [Sulfamethoxazol] + CN[C@@H]1[C@H](O[C@H]2[C@H](O[C@H]3[C@H](O)[C@@H](O)[C@H](N=C(N)N)[C@@H](O)[C@@H]3N=C(N)N)O[C@@H](C)[C@]2(O)C=O)O[C@@H](CO)[C@H](O)[C@H]1O [Streptomycin]
fitness
Details | first compound 1 µg/mL | first compound 2 µg/mL | first compound 4 µg/mL
B. subtilis 168, partner 2 µg/mL | 0.903 | 0.9 | 0.888
B. subtilis 168, partner 4 µg/mL | – | – | 0.153
B. subtilis 168, partner 8 µg/mL | 0.045 | 0.0312 | 0.0185
S. aureus Newman, partner 1 µg/mL | 0.98 | 0.939 | 0.956
S. aureus Newman, partner 2 µg/mL | 0.968 | 0.999 | 0.93
S. pneumoniae D39V, partner 2 µg/mL | 0.962 | 0.962 | 0.932
S. pneumoniae D39V, partner 4 µg/mL | 0.932 | 0.932 | 0.944
S. pneumoniae D39V, partner 8 µg/mL | 0.877 | 0.908 | 0.95

one replicate
Details | fitness
B. subtilis 168, first compound 0.5 µg/mL, partner 2 µg/mL | ≥ 1
B. subtilis 168, first compound 0.5 µg/mL, partner 4 µg/mL | ≥ 1
B. subtilis 168, first compound 0.5 µg/mL, partner 8 µg/mL | 0.0922
S. aureus Newman, first compound 2 µg/mL, partner 8 µg/mL | 0.913
S. aureus Newman, first compound 4 µg/mL, partner 8 µg/mL | 0.876
S. aureus Newman, first compound 8 µg/mL, partner 2 µg/mL | 0.973
S. aureus Newman, first compound 8 µg/mL, partner 4 µg/mL | 0.964
S. aureus Newman, first compound 8 µg/mL, partner 8 µg/mL | 0.897
S. pneumoniae D39V, first compound 1 µg/mL, partner 16 µg/mL | 0.763
S. pneumoniae D39V, first compound 2 µg/mL, partner 16 µg/mL | 0.78
S. pneumoniae D39V, first compound 4 µg/mL, partner 16 µg/mL | 0.79
